Here are results for eleven compounds from patent EP0121856A2, “Use of pyrazolone derivatives against the growth of tumour cells and their metastases, medicaments therefor and their preparation” (BAYER AG, priority 1983, dated 1984).

Structures are written as SMILES.

Assay [1] can be described thus: antithrombotic effect (thrombosis prophylaxis) compared with Nafazatrom. It counts as in vivo. The settings on record: for antithrombotischer Effekt: at 100-fold dose increase compared with Nafazatrom.
The test system of assay [2] is B-16a-Zellen. The assay is described as follows: full metastasis model: subcutaneous injection of B-16a cells, oral treatment for 27 days, metastatic lung nodules (Beispiel 4). Particulars: for Metastasenpunkte: lungs at 28 days; for Metastasenindex: treated / control points. Type of assay: in vivo, C57BL/6J-Mäuse. The text has this:
(§1) Wie bereits weiter oben festgestellt wurde, ist die Metastase eine einzelne Erscheinung, die durch eine Reihe komplizierter Vorgänge verursacht wird. Gegenwärtig finden zwei "Modell"-Systeme für die Untersuchung der in vivo-Metastase verbreitete Anwendung. Das erste Modellsystem umfaßt die subkutante Injektion der Tumorzellen in das Tier. Die subkutante Injektion der Tumorzellen und anschließende Entwicklung eines Primärtumors, gefolgt von spontaner Metastase, wird als "volle" Metastase betrachtet. Ein anderes Modellsystem umfaßt die Injektion der Tumorzellen durch die Schwanzvene. In Anbetracht der Komplexität der Metastase gilt die Schwanzvenen-Injektion nur als partielles Modellsystem, da es nur die Vorgänge während des letzten Teils der Metastase wiedergibt. Das Schwanzvenen-Modellsystem gilt jedoch andererseits als außerordentlich günstig im Hinblick auf eine Standardisierung der Versuchsbedindungen Lvgl. "Methods in Cancer Research", Kapitel VII, Academic Press, Inc., 19787.
Die Wirkung der Verabreichung der Pyrazolon-Verbindungen über einen längeren Zeitraum hinweg auf die Zahl der'metastatischen Lungen-Kolonien des B-16a Melanoms wurde wie nachstehend für Verbindung A beschrieben bestimmt.
10 mg Verbindung A wurden in 0,5 % Tylose aufgenommen und dann durch Behandlung mit Ultraschall (30 sec) gelöst. Die endgültige Konzentration der Substanz wurde durch Verdünnung der Lösung mit 0,5 % Tylose eingestellt. Die Substanz wurde jeden Tag neu gelöst.
Syngeneische C57BL/6J-Mäusen wurde eine Suspension von 1,0 x 10^5 B-16a-Zellen subkutan injiziert, die wie vorstehend beschrieben hergestellt wurde. Vom Tage nach der Tumorzell-Injektion ab erhielten die Mäuse 27 Tage peroral eine tägliche Einzeldosis von 0 bis 100 mg/kg der Pyrazolon-Verbindung. Die Kontroll-Mäuse und die behandelten Mäuse wurden unter identischen Bedingungen der Temperatur, Lichteinwirkungsdauer, Ernährung etc. gehalten. Die Mäuse wurden nach 28 Tagen getötet und die Zahl und Größe der metastatischen Knötchen in der Lunge bestimmt.

The test system of assay [3] is B-16a Tumorzellen. Nature of the assay: partial metastasis model: tail vein injection of B-16a tumour cells, oral pretreatment for three days (Beispiel 1). It counts as in vivo, C57BL/6J-Mäuse. The settings on record: 3 days before tail vein injection; for Metastasenpunkte: lungs 24 days after injection, score 1-10, mean ± S, n = 10; for Metastasenindex: treated group points / control group points. How it is done: Es wurden dieselben Tumor-Zellinien wie in EP-A 0 062 319 verwendet und auf die gleiche Weise in vivo gehalten. ;
Tumorzellen wurden dann aseptisch aus den Wirtsmäusen entnommen und unter Anwendung sequenzieller Collagenase-Verdauung dispergiert, wie unten beschrieben. Die entnommenen Tumoren wurden in Würfel (4 x 4 mm) zerteilt, und das gewürfelte Gewebe wurde auf 6 bis 8 sterile Polycarbonat-Erlenmeyerkolben aufgeteilt (etwa 500 mg/Kolben). Ein Anteil von 10 ml einer "Tumordispersionslösung" (TDS) wurde in jeden Kolben hinzugefügt.
Das gewürfelte Gewebe in der TDS wurde dann unter Luft in einem Dubnoff-Stoffwechsel-Schüttler (90 Schwingungen/min) dispergiert (30 min; 37°C). Die überstände wurden durch ein Seihtuch in sterile 50 ml-Rundboden-Zentrifugenröhrchen auf Polycarbonat gesammelt und 10 min (25°C) mit 900 U/min(100 g) in einem Sorvall SS-34 -Rotor zentrifugiert. Nach dem Zentrifugieren wurde die überstehende Fraktion verworfen. Das erhaltene zelluläre Material (Pellets) wurde zweimal mit MEM-Lösung gewaschen, wieder in MEM suspendiert und bei 4°C gehalten.
Zu dem verbleibenden gewürfelten Gewebe wurde ein Anteil von 10 ml TDS hinzugefügt, und das Gewebe wurde in einem Stoffwechselschüttler inkubiert, wie oben beschrieben, außer daß die Zeitdauer 60 min betrug. Das Zentrifugieren wurde wiederholt, und die wieder suspendierten Zellen wurden vereinigt.
as §1
5 mg des jeweiligen Pyrazolonderivats wurden in 0,5 % Tylose aufgenommen und dann durch Behandlung mit Ultraschall (30 sec) gelöst. Die endgültige Konzentration der Substanzen wurde durch Verdünnung der Lösungen mit 0,5 % Tylose eingestellt.
(§2) Syngeneische C57BL/6J-Mäuse wurden während eines Zeitraumes von drei Tagen mit 0,005 mg/kg bis 5 mg/kg der beiden Substanzen in 0,2 ml 0,5 % Tylose peroral behandelt. Kontrolltiere erhielten täglich 0,2 ml 0,5 % Tylose. Am vierten Tag wurde den vorbehandelten Mäusen und Kontrollmäusen ein Suspension von 5 x 10^4 B-16a Tumorzellen über die Schwanzvene injiziert. Die Kontrollmäuse und die behandelten Mäuse wurden unter identischen Bedingungen der Temperatur, Lichteinwirkungsdauer, Ernährung etc. gehalten. Die Mäuse wurden 24 Tage nach erfolgter Schwanzvenen-Injektion getötet, und ihre Lungengewebe wurden untersucht. Der Grad der Metastasierung wurde nach Zahl und Größe der makroskopisch sichtbaren Metastasen mit Punktzahlen von 1 - 10 bewertet, welche die Relation zwischen Metastasenbedeckter und - freier Organfläche ausdrücken. Dabei werden die Punktzahlen nach folgenden Rahmenkriterien vergeben: 1 = 1 - 2 gerade erkennbare Metastasen, 5 = etwa 50 % der Organoberfläche ist von Metastasen bedeckt, 10 = fast keine normale Organoberfläche sichtbar.

In assay [4] the test system is B-16a Tumorzellen. The assay is described as follows: partial metastasis model: tail vein injection of B-16a tumour cells, oral treatment 3 days before and 2 days after tumour injection (Beispiel 2 and 3). Type of assay: in vivo, C57BL/6J-Mäuse. The settings on record: for Metastasenpunkte: score 1-10, mean ± S, n = 10; for Metastasenindex: treated / control points. As to the method:
as §2
5 mg des jeweiligen Pyrazolonderivats wurden in 0,5 % Ty-lose aufgenommen und dann durch Behandlung mit Ultraschall (30 sec) gelöst. Die endgültige Konzentration der Substanzen wurde durch Verdünnung der Lösungen mit 0,5 % Tylose eingestellt.
Syngeneische C57BL/6J-Mäuse wurden während eines Zeitraumes von drei Tagen vor der Tumorinjektion und 2 Tagen nach der Tumorinjektion täglich mit 0,005 mg/kg bis 5 mg/kg der beiden Substanzen in 0,2 ml 0,5 % Tylose peroral behandelt. Kontrolltiere erhielten 0,2 ml 0,5 % Tylose. Am vierten Tag wurde den. vorbehandelten Mäusen und Kontrollmäusen eine Suspension von 5 x 10^4 B-16a Tumorzellen über die Schwanzvene injiziert.
20 mg des jeweiligen Pyrazolonderivats wurden in 0,5 % Tylose aufgenommen und dann durch Behandlung mit Ultraschall (30 sec) gelöst. Die endgültige Konzentration der Substanzen wurde durch Verdünnung der Lösungen mit 0,5 % Tylose eingestellt.
Syngeneische Tiere wurden während eines Zeitraumes von drei Tagen vor der Tumorinjektion und 2 Tagen nach der Tumorinjektion täglich mit 2 mg bis 200 mg/kg der Substanzen in 0,2 ml 0,5 % Tylose peroral behandelt. Kontrolltiere erhielten 0,2 ml 0,5 % Tylose. Am vierten Tag wurde den vorbehandelten Mäusen und Kontrolltieren eine Suspension von 5 x 10^4 B-16a Tumorzellen über die Schwanzvene injiziert.

[5] abbreviates: 0,5 mg/kg peroral daily for 27 days after s.c. tumour cell injection.
Setting [6] is: 5 mg/kg peroral daily for 27 days after s.c. tumour cell injection.
Setting [7] is: 25 mg/kg peroral daily for 27 days after s.c. tumour cell injection.
The mark [8] stands for this setting: 50 mg/kg peroral daily for 27 days after s.c. tumour cell injection.
Setting [9] is: 75 mg/kg peroral daily for 27 days after s.c. tumour cell injection.
Setting [10] is: 100 mg/kg peroral daily for 27 days after s.c. tumour cell injection.

In the case of `CC1=NN(CCOc2ccc3ccccc3c2)C(=O)C1C` (stereo not shown) [3,4-Dimethyl-Derivat], the “antithrombotischer Effekt” value in assay [1] was “kein antithrombotischer Effekt feststellbar”.

Consider `CC1=NN(CCOc2ccc3ccccc3c2)C(=O)C1C` (stereo not shown) [Verbindung A], for which the Metastasenpunkte was 2,9±2,6 in assay [2] (setting [5]); 2,7±2,0 in assay [2] (setting [6]); 2,2±1,6 in assay [2] (setting [7]); 2,1±1,5 in assay [2] (setting [8]); 1,3±1,4 in assay [2] (setting [9]); 2,8±1,7 in assay [2] (setting [10]). Also, the Metastasenpunkte in assay [3] (0,05 mg/kg peroral) is 5,3±1,5; in assay [3] (0,5 mg/kg peroral) it was 4,1±1,4; in assay [3] (0,005 mg/kg peroral) it was 2,6±1,1; in assay [3] (5 mg/kg peroral) it was 2,3±1,2. Also, the Metastasenindex in assay [2] (setting [5]) is 0,66; in assay [2] (setting [6]), 0,61; in assay [2] (setting [7]), 0,50; in assay [2] (setting [8]), 0,48; in assay [2] (setting [9]), 0,30; in assay [2] (setting [10]), 0,64. The Metastasenindex in assay [3] (0,05 mg/kg peroral) is on record as 0,76; in assay [3] (0,5 mg/kg peroral), 0,59; in assay [3] (0,005 mg/kg peroral), 0,37; in assay [3] (5 mg/kg peroral), 0,33.

On to `CCCC1=NN(CCOc2ccc3ccccc3c2)C(=O)C1` [3-n-Propyl-], for which, in assay [1], the “antithrombotischer Effekt” value was “kein antithrombotischer Effekt feststellbar”.

For `COc1cc(N2N=C(N)CC2=O)ccc1C` [Verbindung E], the Metastasenpunkte in assay [4] (2 mg/kg peroral daily) is 2,7±1,7; in assay [4] (20 mg/kg peroral daily) it was 2,5±1,0; in assay [4] (200mg/kg peroral daily) it was 2,7±1,5. The Metastasenindex in assay [4] (2 mg/kg peroral daily) is reported as 0,66; in assay [4] (20 mg/kg peroral daily), 0,61; in assay [4] (200mg/kg peroral daily), 0,66.

In the case of `CCCCCCCCCCCCCCCCCC1=NN(c2ccc(Oc3ccccc3)c(S(=O)(=O)O)c2)C(=O)C1` [Verbindung F], the values for the Metastasenpunkte in assay [4] (2 mg/kg peroral daily), in assay [4] (20 mg/kg peroral daily) and in assay [4] (200mg/kg peroral daily) were 2,8±1,0, 3,0±1,1 and 2,6±1,0, respectively. The results for the Metastasenindex in assay [4] (2 mg/kg peroral daily), in assay [4] (20 mg/kg peroral daily) and in assay [4] (200mg/kg peroral daily) were 0,68, 0,73 and 0,63, respectively.

Consider `O=C1CC(Cc2ccccc2)=NN1CCOc1ccc2ccccc2c1` [3-Benzyl-], for which, in assay [1], the “antithrombotischer Effekt” value is “kein antithrombotischer Effekt feststellbar”.

As to `CC1=NN(CCOc2ccc3ccccc3c2)C(=O)C1(C)C` [Verbindung B], the Metastasenpunkte was 4,2±2,6 in assay [3] (0,05 mg/kg peroral), 2,6±0,8 in assay [3] (0,5 mg/kg peroral), 4,9±2,2 in assay [3] (0,005 mg/kg peroral) and 4,5±2,3 in assay [3] (5 mg/kg peroral). Further, the Metastasenindex in assay [3] (0,05 mg/kg peroral) is recorded as 0,60; in assay [3] (0,5 mg/kg peroral), 0,37; in assay [3] (0,005 mg/kg peroral), 0.70; in assay [3] (5 mg/kg peroral), 0,64.

Turning to `CCC1=NN(CCOc2ccc3ccccc3c2)C(=O)C1` [Ethyl in der 3-Position des Nafazatroms], in assay [1] (fraction of the effect of Nafazatrom), the “Wirkung bei der Thromboseprophylaxe” value is reported as 1/30.

As for `CC(C)C1=NN(CCOc2ccc3ccccc3c2)C(=O)C1` [3-Isopropyl-], the “antithrombotischer Effekt” value in assay [1] is on record as “kein antithrombotischer Effekt feststellbar”.

Take `CC1=NN(C(C)c2ccsc2)C(=O)C1` (stereo not shown) [Verbindung D]: the Metastasenpunkte in assay [4] (0,05 mg/kg peroral daily) is reported as 3,8±1,8; in assay [4] (0,5 mg/kg peroral daily), 3,6±1,7; in assay [4] (0,005 mg/kg peroral daily), 4,7±1,9; in assay [4] (5 mg/kg peroral daily), 3,8±1,4. In addition, the Metastasenindex in assay [4] (0,05 mg/kg peroral daily) is recorded as 0,63; in assay [4] (0,5 mg/kg peroral daily) it was 0,60; in assay [4] (0,005 mg/kg peroral daily), 0,78; in assay [4] (5 mg/kg peroral daily) it was 0,63.

Regarding `CC1=NN(Cc2ccoc2)C(=O)C1` [Verbindung C], the Metastasenpunkte in assay [4] (0,05 mg/kg peroral daily) was 4,3±1,7; in assay [4] (0,5 mg/kg peroral daily) it was 4,7±2,1; in assay [4] (0,005 mg/kg peroral daily), 5,2±2,0; in assay [4] (5 mg/kg peroral daily), 5,3±2,0. The Metastasenindex is listed as 0,72 in assay [4] (0,05 mg/kg peroral daily), 0,78 in assay [4] (0,5 mg/kg peroral daily), 0,87 in assay [4] (0,005 mg/kg peroral daily) and 0,88 in assay [4] (5 mg/kg peroral daily).
